For series [1] the following is noted: the molecule shown is the open-chain precursor, other bond.
The conditions of series [2]: the molecule shown is the open-chain precursor, other bond, 18-membered ring, DIEA, THF.
The conditions of series [3]: other bond.
The conditions of series [4]: the molecule shown is the open-chain precursor; other bond; 18-membered ring; DIEA; THF; 1.83 mM; 80.0 °C.

Where two headings read alike, the source gives them in different places.

On to `CC(C)(C)n1nc([C@H]2CC[C@@H](OC(=O)Oc3ccc([N+](=O)[O-])cc3)C2)cc1Nc1cc(CCCCCN)nc(C(F)F)c1`, for which, in series [1] (18-membered ring, DIEA, THF, 3.27 mM, 30.0 °C), the ring closure, isolated yield came out at 44.1%. Consider `CC(C)(C)n1nc([C@H]2CC[C@@H](OC(=O)Oc3ccc([N+](=O)[O-])cc3)C2)cc1Nc1cc(OCCCCN)nc(C(F)F)c1`, for which the ring closure, isolated yield in series [1] (18-membered ring, DIEA, THF, 1.11 mM, 25.0 °C) amounted to 65%. In series [2] (1.21 mM, 70.0 °C), `CC(C)(C)n1nc([C@H]2CC[C@@H](OC(=O)Oc3ccc([N+](=O)[O-])cc3)C2)cc1Nc1ccnc(OCC2CC(N)C2)c1` (stereo partly shown) displayed a ring closure, crude yield of 96.7%.

Turning to `CC(C)(C)n1nc([C@H]2CC[C@@H](OC(=O)Oc3ccc([N+](=O)[O-])cc3)C2)cc1Nc1cncc(OCC2CC(N)C2)n1` (stereo partly shown), in series [1] (18-membered ring, DIEA, DMSO, 2.3 mM, 100.0 °C), the ring closure, isolated yield was found to be 38%. On to `CC(C)(C)n1nc([C@H]2CC[C@@H](OC(=O)Oc3ccc([N+](=O)[O-])cc3)C2)cc1Nc1cncc(OCCCCN)c1`, for which the ring closure, isolated yield in series [1] (18-membered ring, DIEA, THF, 2.01 mM, 25.0 °C) amounted to 49.3%. Turning to `CC(C)(C)n1nc([C@H]2C[C@@H](F)[C@@H](OC(=O)Oc3ccc([N+](=O)[O-])cc3)C2)cc1Nc1ccnc(OCC2CC(N)C2)c1` (stereo partly shown), the ring closure, isolated yield in series [1] (18-membered ring, DIEA, THF, 1.7 mM, 60.0 °C) amounted to 37%. Take `CC(C)(N)CCCOc1cc(Nc2cc([C@H]3CC[C@@H](OC(=O)Oc4ccc([N+](=O)[O-])cc4)C3)nn2C(C)(C)C)ccn1`: the ring closure, isolated yield in series [1] (18-membered ring, DIEA/DMAP, THF, 1.81 mM, 50.0 °C) is 88.8%.

With `CC(CC12CC(N)(C1)C2)Oc1cc(Nc2cc([C@H]3CC[C@@H](OC(=O)Oc4ccc([N+](=O)[O-])cc4)C3)nn2C(C)(C)C)cc(C(F)F)n1` (stereo partly shown), the ring closure, isolated yield in series [1] (19-membered ring, DIEA, THF, 9.15 mM, 80.0 °C) was determined as 84.7%. On to `CC(N)CCCOc1cc(Nc2cc([C@H]3CC[C@@H](OC(=O)Oc4ccc([N+](=O)[O-])cc4)C3)nn2C(C)(C)C)ccn1` (stereo partly shown), for which, in series [1] (18-membered ring, DIEA, THF, 2.06 mM, 30.0 °C), the ring closure, isolated yield was determined as 98.5%. Take `CC(OCCCN)c1cc(Nc2cc([C@H]3CC[C@@H](OC(=O)Oc4ccc([N+](=O)[O-])cc4)C3)nn2C(C)(C)C)ccn1` (stereo partly shown): the ring closure, crude yield in series [2] (6.34 mM, 100.0 °C) turned out to be 87.5%. In series [1] (18-membered ring, DIEA, THF, 1.46 mM, 70.0 °C), `C[C@@H](N)CC/C=C/c1cc(Nc2cc([C@H]3CC[C@@H](OC(=O)Oc4ccc([N+](=O)[O-])cc4)C3)nn2C(C)(C)C)ccn1` returned a ring closure, isolated yield of 98.6%.

As for `C[C@@H](N)CCCCc1cc(Nc2cc([C@H]3CC[C@@H](OC(=O)Oc4ccc([N+](=O)[O-])cc4)C3)nn2C(C)(C)C)ccn1`, in series [1] (18-membered ring, DIEA, THF, 1.42 mM, 100.0 °C), the ring closure, isolated yield stood at 99.5%.

Consider `C[C@@H]1CCCCc2cc(ccn2)Nc2cc(nn2C(C)(C)C)[C@H]2CC[C@H](C2)OC(=O)N1`, for which the ring closure, yield of all isomers in series [3] (from C[C@@H](N)CCCCc1cc(Nc2cc([C@H]3CC[C@@H](OC(=O)Oc4ccc([N+](=O)[O-])cc4)C3)nn2C(C)(C)C)ccn1, DIPEA, THF, 1.42 mM, 100.0 °C, 3.0 h) was determined as 99.5%. The molecule `C[C@@H]1NC(=O)O[C@@H]2CC[C@@H](C2)c2cc(n(C(C)(C)C)n2)Nc2ccnc(c2)OCCC1(F)F` returned a ring closure, yield of all isomers in series [3] (from C[C@H](N)C(F)(F)CCOc1cc(Nc2cc([C@H]3CC[C@@H](OC(=O)Oc4ccc([N+](=O)[O-])cc4)C3)nn2C(C)(C)C)ccn1, DIEA, DMSO, 1.15 mM, 100.0 °C, 16.0 h) of 87.3%. For the molecule `C[C@@H]1NC(=O)O[C@@H]2CC[C@@H](C2)c2cc(n(C(C)(C)C)n2)Nc2ccnc(c2)OCCC1F` (stereo partly shown), the ring closure, yield of all isomers in series [3] (from C[C@H](N)C(F)CCOc1cc(Nc2cc([C@H]3CC[C@@H](OC(=O)Oc4ccc([N+](=O)[O-])cc4)C3)nn2C(C)(C)C)ccn1, DIEA, DMSO, 1.71 mM, 100.0 °C, 2.0 h) came to 97%. As for `C[C@@H]1NC(=O)O[C@H]2C[C@H](C[C@H]2F)c2cc(n(C(C)(C)C)n2)Nc2ccnc(c2)OCCC1(F)F`, the ring closure, yield of all isomers in series [3] (from C[C@H](N)C(F)(F)CCOc1cc(Nc2cc([C@H]3C[C@@H](F)[C@@H](OC(=O)Oc4ccc([N+](=O)[O-])cc4)C3)nn2C(C)(C)C)ccn1, DIEA, DMSO, 3.13 mM, 100.0 °C, 12.0 h) is 88%. In turn, `C[C@H](N)C(F)(F)CCOc1cc(Nc2cc([C@H]3C[C@@H](F)[C@@H](OC(=O)Oc4ccc([N+](=O)[O-])cc4)C3)nn2C(C)(C)C)ccn1` had a ring closure, isolated yield in series [1] (18-membered ring, DIEA, DMSO, 3.13 mM, 100.0 °C) of 88%. Take `C[C@H](N)C(F)CCOc1cc(Nc2cc([C@H]3CC[C@@H](OC(=O)Oc4ccc([N+](=O)[O-])cc4)C3)nn2C(C)(C)C)ccn1` (stereo partly shown): the ring closure, isolated yield in series [1] (18-membered ring, DIEA, DMSO, 1.71 mM, 100.0 °C) is 97%.

As to `C[C@H](N)CC(F)(F)COc1cc(Nc2cc([C@H]3CC[C@@H](OC(=O)Oc4ccc([N+](=O)[O-])cc4)C3)nn2C(C)(C)C)ccn1`, the ring closure, yield after HPLC in series [4] came out at 66.2%. `C[C@H](N)CCCCc1cc(Nc2cc([C@H]3CC[C@@H](OC(=O)Oc4ccc([N+](=O)[O-])cc4)C3)nn2C(C)(C)C)ccn1`: in series [2] (0.92 mM, 20.0 °C), the ring closure, crude yield is 91.9%. In series [2] (1.71 mM, 25.0 °C), `C[C@H](N)CCCOc1cc(Nc2cc([C@H]3CC[C@@H](OC(=O)Oc4ccc([N+](=O)[O-])cc4)C3)nn2C(C)(C)C)c(F)cn1` showed a ring closure, crude yield of 99.9%. As to `C[C@H](N)CCCOc1cc(Nc2cc([C@H]3CC[C@@H](OC(=O)Oc4ccc([N+](=O)[O-])cc4)C3)nn2C(C)(C)C)cc(F)n1`, the ring closure, crude yield in series [2] (1.71 mM, 25.0 °C) turned out to be 97.8%. In the case of `C[C@H](N)CCCOc1cc(Nc2cc([C@H]3CC[C@@H](OC(=O)Oc4ccc([N+](=O)[O-])cc4)C3)nn2C(C)(C)C)ccn1`, the ring closure, isolated yield in series [1] (18-membered ring, DIEA, THF, 3.53 mM, 50.0 °C) was 84.8%. As to `C[C@H](N)CCCOc1nccc(Nc2cc([C@H]3CC[C@@H](OC(=O)Oc4ccc([N+](=O)[O-])cc4)C3)nn2C(C)(C)C)n1`, in series [1] (18-membered ring, DIEA, DMSO, 1.79 mM, 80.0 °C), the ring closure, isolated yield was 93%. In turn, `C[C@H](N)CCO[C@@H](C)c1cc(Nc2cc([C@H]3CC[C@@H](OC(=O)Oc4ccc([N+](=O)[O-])cc4)C3)nn2C(C)(C)C)ccn1` displayed a ring closure, crude yield in series [2] (0.55 mM, 25.0 °C) of 86.5%. The molecule `C[C@H]1CC(F)(F)COc2cc(ccn2)Nc2cc(nn2C(C)(C)C)[C@H]2CC[C@H](C2)OC(=O)N1` had a ring closure, yield of all isomers in series [3] (from C[C@H](N)CC(F)(F)COc1cc(Nc2cc([C@H]3CC[C@@H](OC(=O)Oc4ccc([N+](=O)[O-])cc4)C3)nn2C(C)(C)C)ccn1, DIEA, THF, 1.83 mM, 80.0 °C, 12.0 h) of 66.2%.

As to `C[C@H]1CC/C=C/c2cc(ccn2)Nc2cc(nn2C(C)(C)C)[C@H]2CC[C@H](C2)OC(=O)N1`, the ring closure, yield of all isomers in series [3] (from C[C@H](N)CC/C=C/c1cc(Nc2cc([C@H]3CC[C@@H](OC(=O)Oc4ccc([N+](=O)[O-])cc4)C3)nn2C(C)(C)C)ccn1, DIEA, THF, 1.6 mM, 60.0 °C, 2.0 h) stood at 93.9%. The molecule `C[C@H]1CCCC(F)(F)c2cc(ccn2)Nc2cc(nn2C(C)(C)C)[C@H]2CC[C@H](C2)OC(=O)N1` gave a ring closure, yield of all isomers in series [3] (from C[C@H](N)CCCC(F)(F)c1cc(Nc2cc([C@H]3CC[C@@H](OC(=O)Oc4ccc([N+](=O)[O-])cc4)C3)nn2C(C)(C)C)ccn1, DIEA, THF, 1.33 mM, 25.0 °C, 3.0 h) of 99.3%. As to `C[C@H]1CCCCc2cc(ccn2)Nc2cc(nn2C(C)(C)C)[C@H]2CC[C@H](C2)OC(=O)N1`, in series [3] (from C[C@H](N)CCCCc1cc(Nc2cc([C@H]3CC[C@@H](OC(=O)Oc4ccc([N+](=O)[O-])cc4)C3)nn2C(C)(C)C)ccn1, DIEA, THF, 0.92 mM, 20.0 °C, 4.0 h), the ring closure, yield of all isomers stood at 91.9%. As to `C[C@H]1CCCOc2cc(c(F)cn2)Nc2cc(nn2C(C)(C)C)[C@H]2CC[C@H](C2)OC(=O)N1`, in series [3] (from C[C@H](N)CCCOc1cc(Nc2cc([C@H]3CC[C@@H](OC(=O)Oc4ccc([N+](=O)[O-])cc4)C3)nn2C(C)(C)C)c(F)cn1, DIEA, THF, 1.71 mM, 25.0 °C, 3.0 h), the ring closure, yield of all isomers was 99.9%. For `C[C@H]1CCCOc2cc(cc(F)n2)Nc2cc(nn2C(C)(C)C)[C@H]2CC[C@H](C2)OC(=O)N1`, in series [3] (from C[C@H](N)CCCOc1cc(Nc2cc([C@H]3CC[C@@H](OC(=O)Oc4ccc([N+](=O)[O-])cc4)C3)nn2C(C)(C)C)cc(F)n1, DIEA, THF, 1.71 mM, 25.0 °C, 3.0 h), the ring closure, yield of all isomers is 97.8%. The molecule `C[C@H]1CCCOc2cc(ccn2)Nc2cc(nn2C(C)(C)C)[C@H]2CC[C@H](C2)OC(=O)N1` displayed a ring closure, yield of all isomers in series [3] (from C[C@H](N)CCCOc1cc(Nc2cc([C@H]3CC[C@@H](OC(=O)Oc4ccc([N+](=O)[O-])cc4)C3)nn2C(C)(C)C)ccn1, DIEA, THF, 3.53 mM, 50.0 °C, 12.0 h) of 84.8%. Molecule `C[C@H]1CCCOc2nccc(n2)Nc2cc(nn2C(C)(C)C)[C@H]2CC[C@H](C2)OC(=O)N1` came in with a ring closure, yield of all isomers in series [3] (from C[C@H](N)CCCOc1nccc(Nc2cc([C@H]3CC[C@@H](OC(=O)Oc4ccc([N+](=O)[O-])cc4)C3)nn2C(C)(C)C)n1, DIEA, DMSO, 1.79 mM, 80.0 °C, 3.0 h) of 93%. In series [3] (from C[C@H](N)CCO[C@H](C)c1cc(Nc2cc([C@H]3CC[C@@H](OC(=O)Oc4ccc([N+](=O)[O-])cc4)C3)nn2C(C)(C)C)ccn1, DIEA, THF, 0.86 mM, 25.0 °C, 12.0 h), `C[C@H]1CCO[C@H](C)c2cc(ccn2)Nc2cc(nn2C(C)(C)C)[C@H]2CC[C@H](C2)OC(=O)N1` came in with a ring closure, yield of all isomers of 92.1%.

The values are drawn from US20240317777A1, “NOVEL MACROCYCLIC AMINOPYRAZOLE COMPOUNDS AS CDK2 INHIBITORS” (Accutar Biotechnology Inc., priority 2023, published 2024).
